Reference: patent publication US20100151021A1 (priority 2008, published 2010)
Each block holds one compound with its values, some of them ahead of it.

Columns and labels:
[1] = Solubility of Melperone HCl in media; type: physicochemical; details: for solubility: phosphate buffer, aqueous buffer
[2] = cited from earlier work
[3] = test system: psychosis in patients with PD; details: cited from earlier work
[4] = clinical; cited from earlier work
[5] = test system: psychosis associated with PD; details: initial open-label studies; cited from earlier work

- solubility ([1]; pH 7.0 (phosphate)): > 100 mg/mL
- solubility ([1]; pH 7.8 (phosphate)): 25.6 mg/mL
Compound: CC1CCN(CCCC(=O)c2ccc(F)cc2)CC1.Cl [Melperone HCl, 1-(4-fluorophenyl)-4-(4-methyl-1-piperidinyl)-1-butanone hydrochloride]

- Solubility in words ([1]; aqueous buffers at acidic to neutral pH conditions): freely soluble
- Solubility in words ([1]; higher pH values (above pH=7.5)): poorly soluble
Compound: CC1CCN(CCCC(=O)c2ccc(F)cc2)CC1 [melperone]
- mean Tmax ([2]; oral tablet administration): 1.5 to 3.0 h
- absolute oral bioavailability ([2]; oral): 50-70%
- time over which efficacy was maintained ([3]; mean daily dose of 37.5 mg): 2 years
- efficacy in the treatment of psychosis ([3]; patients with PD): has shown efficacy
- onset of efficacy ([3]; patients with PD): within a week
- incidence of extrapyramidal side effect (EPS) or tardive dyskinesia [4]: low incidence

Compound: OCCOCCN1CCN(C2=Nc3ccccc3Sc3ccccc32)CC1 [quetiapine]
- efficacy in psychosis associated with PD [5]: has shown efficacy
- patients with worsening of motor symptoms of PD [5]: up to 30%
